For data set [1] the following is noted: type 2 diabetes, randomized controlled trial, cited from earlier work.
Data set [2] concerns 3T3-L1 adipocytes. In words: O-GlcNAc levels by Western blot (RL-2 antibody) of whole-cell extracts, mouse immortalized adipocytes. It counts as cell-based. Particulars: PUGNAc 100 μM vs low glucose (LG), FIG. 1. The protocol: 3T3s cell lines: 3T3-L1 and -F442A fibroblasts were maintained and differentiated on 10 cm plates essentially as previously described^11,25. Briefly, two days after the cells reached confluence, cells were induced to differentiate with high ([…], 3T3-L1) or low (3T3-F442A) glucose ([…]) DMEM containing 10% fetal bovine serum (3T3-L1) or 10% calf serum (3T3-F442A) via addition of 0.5 mM (115 μg/mL) 3-isobutyl-1-methyxanthine (MIX, Sigma), 1 μM (390 ng/mL) dexamethasone (Sigma), and 175 nM (1 μg/mL) recombinant insulin (human, Roche). After 48 hrs (day 2), the medium was replaced with high (3T3-L1) or low (3T3-F442A) glucose DMEM plus 10% FBS and supplemented with 1 μg/mL insulin for an additional 48 hrs. After 96 hrs (day 4), cells were maintained in appropriate medium depending on the condition being examined.
On the designated days (day 4 for 3T3-L1, day 5 for 3T3-F442A, and day 9 for rat primary adipocytes), adipocytes were induced with a combined treatment of low or high glucose containing 10% FBS, with or without insulin (100 nM) and PUGNAc (100 μM, TRC Inc.) according to the experimental conditions described in the results. After 24 hrs incubation, the medium was removed and the cells were washed five times with low or high glucose serum-free DMEM without antibiotics and vitamins and incubated with the last rinse for 15 min. […]
For orientation: In western blotting, separated proteins are transferred to a membrane and probed.

Data set [3] concerns rat primary adipocytes. In words: O-GlcNAc levels by Western blot (RL-2 antibody) of whole-cell extracts, rat primary adipocytes. Particulars: PUGNAc 100 μM vs low glucose (LG), FIG. 1. It counts as cell-based. An excerpt:
Rat Primary cell culture: inguinal and retroperitoneal fat pads were removed aseptically from male Sprague-Dawley rats (Harlan Industries, Indianapolis, Ind.) and primary preadipocytes were isolated as described in detail previously^26,27. After additional washing and centrifugation steps, the preadipocyte pellet was resuspended in plating medium (high glucose DMEM, antibiotics: PS, 10% FBS) and seeded at an average density of 1.35×10^4 cells/cm^2 for inguinal and 1.63×10^3 cells/cm^2 for retroperitoneal on 10 cm dishes for the differentiation. Primary cells were maintained in a humidified atmosphere containing 5% CO2 in air at 37° C. and cultured to confluence, changing the plating medium every 2 days. After 2 days of confluence, referred to as day 0, the medium was replaced with differentiation medium (high glucose DMEM containing antibiotics and 10% FBS, 0.25 mM MIX, 0.1 μM dexamethasone, and 17 nM insulin) and at day 2, an additional 17 nM of insulin was administered with the plating medium for an additional 48 hrs incubation. The cells were maintained in low glucose DMEM containing 10% FBS and treatments (see below) until harvest. […]

Data set [4] relates to rat primary adipocytes. In words: Quantitative LC-MS/MS and 2D-LC-MS/MS analysis of the secreted proteome of primary rat adipocytes. It counts as cell-based. An excerpt:
Rat Primary cell culture: inguinal and retroperitoneal fat pads were removed aseptically from male Sprague-Dawley rats (Harlan Industries, Indianapolis, Ind.) and primary preadipocytes were isolated as described in detail previously^26,27. After additional washing and centrifugation steps, the preadipocyte pellet was resuspended in plating medium (high glucose DMEM, antibiotics: PS, 10% FBS) and seeded at an average density of 1.35×10^4 cells/cm^2 for inguinal and 1.63×10^3 cells/cm^2 for retroperitoneal on 10 cm dishes for the differentiation. Primary cells were maintained in a humidified atmosphere containing 5% CO2 in air at 37° C. and cultured to confluence, changing the plating medium every 2 days. After 2 days of confluence, referred to as day 0, the medium was replaced with differentiation medium (high glucose DMEM containing antibiotics and 10% FBS, 0.25 mM MIX, 0.1 μM dexamethasone, and 17 nM insulin) and at day 2, an additional 17 nM of insulin was administered with the plating medium for an additional 48 hrs incubation. The cells were maintained in low glucose DMEM containing 10% FBS and treatments (see below) until harvest.
On the designated days (day 4 for 3T3-L1, day 5 for 3T3-F442A, and day 9 for rat primary adipocytes), adipocytes were induced with a combined treatment of low or high glucose containing 10% FBS, with or without insulin (100 nM) and PUGNAc (100 μM, TRC Inc.) according to the experimental conditions described in the results. After 24 hrs incubation, the medium was removed and the cells were washed five times with low or high glucose serum-free DMEM without antibiotics and vitamins and incubated with the last rinse for 15 min. After the final wash was removed, serum-free media supplemented with insulin (1 nM) or PUGNAc (100 μM) was added and cells were incubated for 16 hrs.
After incubation, the conditioned media were harvested with extreme care and then centrifuged once at 1,800 rpm at 4° C. for 7 min. The supernatants were filtered using 1 μm syringe filters (PALL). The samples were then collected in centrifuge tubes and centrifuged again at 30,000×G at 4° C. for 30 min. The samples were then transferred to an equilibrated spin column (Centriprep YM-3, Amicon, Millipore) and buffer-exchanged at 2,800 G and 4° C. into 40 mM ammonium bicarbonate (NH4HCO3) plus 1 mM DTT and concentrated. The concentrated samples were denatured with 1 M urea, reduced with 10 mM DTT for 1 hr at 56° C., carboxyamidomethylated with 55 mM iodoacetamide in the dark for 45 min, and then digested with 5 μg trypsin (Promega) in 40 mM NH4HCO3 overnight at 37° C. After digestion, the peptides were acidified with 200 μl of 1% trifluoroacetic acid (TFA). Desalting was subsequently performed with C18 spin columns (Vydac Silica C18, The Nest Group, Inc.), and the resulting peptides were dried down in a Speed Vac and stored at −20° C. until analyzed. For the subset of samples to be analyzed for N-linked glycosylation, peptides were resuspended in 19 μl ^18O-water and 1 μl of N-glycanase (PNGaseF, Prozyme) and allowed to incubate for 18 hours at 37° C. Peptides were dried back down and resuspended in 50 μl of 40 mM NH4HCO3 with 1 μg of trypsin, to remove any possible C-terminal incorporation of ^18O from residual trypsin activity^28, for 4 hours and then dried down and stored at −20° C. until analyzed.
The peptides were resuspended with 78 μl of mobile phase A (0.1% formic acid, FA, in water) and 2 μl of mobile phase B (80% acetonitrile, ACN, and 0.1% formic acid in water) and filtered with 0.2 μm filters (Nanosep, PALL). The samples were loaded off-line onto a nanospray tapered capillary column/emitter (360×75×15 μm, PicoFrit, New Objective) self-packed with C18 reverse-phase (RP) resin (8.5 cm, Waters) in a Nitrogen pressure bomb for 10 min at 1,000 p.s.i. (˜5 ul load) and then separated via a 160-min linear gradient of increasing mobile phase B at a flow rate of ˜200 nl/min directly into the mass spectrometer. […]

The test system of data set [5] is adipocytes. Particulars: elevation of O-GlcNAc levels with PUGNAc; previously shown (ref 11); cited from earlier work.
[6] abbreviates: PUGNAc treatment vs insulin responsive (LG) condition, same direction with HG+insulin, Table 5.

This is an account of results in US20100190686A1, “NOVEL SECRETED PROTEINS OF ADIPOCYTES FOR DIAGNOSTIC PURPOSES” (The University of Georgia Research Foundation, priority 2007, published 2010).

With `CN(CCOc1ccc(CC2SC(=O)NC2=O)cc1)c1ccccn1` (stereo not drawn) [rosiglitazone], the “weight gain and edema” value in data set [1] (compared with metformin and glyburide) was “more weight gain and edema”.

Turning to `CC(=O)N[C@H]1/C(=N/OC(=O)Nc2ccccc2)O[C@H](CO)[C@@H](O)[C@@H]1O` [PUGNAc], the O-GlcNAc levels entry in data set [2] is “elevate O-GlcNAc levels significantly”. For the same compound, in data set [3], the O-GlcNAc levels result was “elevate O-GlcNAc levels significantly”. Besides, in data set [4] (LG+PUG vs LG (normalized to 1.00), two biological replicates, FIG. 4A), the “secretion of serine protease inhibitor 2C (reconstructed ion chromatogram of a peptide)” value was “upregulation”. Also, the “secretion of tetranectin (reconstructed ion chromatogram of a peptide)” value in data set [4] (LG+PUG vs LG (normalized to 1.00), two biological replicates, FIG. 4B) is “upregulation”. The “secretion of cholesterol-binding protein NPC2” value in data set [4] (PUGNAc treatment vs insulin responsive (LG) condition, both insulin resistance conditions) is on record as “upregulated”. For the same compound, in data set [4] (setting [6]), the “secretion of GP-39” value was “upregulation”, the secretion of ceruloplasmin entry was “upregulation”, the “secretion of fibulin-2” value is on record as “downregulated” and the “secretion of lipoprotein lipase” value was “upregulation”. In data set [4] (setting [6]), the “secretion of protein-S” value is recorded as “upregulation”, the “secretion of slit homolog 3” value is recorded as “downregulated” and the secretion of spondin result is reported as “upregulation”. For the same compound, in data set [5], the “induction of insulin resistance” value is reported as “induces insulin resistance”.

`CN(C)C(=N)N=C(N)N` [metformin]: in data set [1] (5 years), the “cumulative incidence of monotherapy failure at 5 years” value was 21%.
